Target: T1, KRAS^G12V-GppNHp (Homo sapiens, UniProt P01116, G12V)
T1 construct: made in house; host or cells: E. coli (pGEX-2T; strain named only for the HRAS plasmids)
Experiment: SPR binding to KRAS G12V-GppNHp
Details: 100 μM, run in triplicate
Method: A BIAcore T100 (GE Healthcare) was used to screen the fragment library for RAS binders. A polyclonal goat anti-GST antibody (GE Healthcare) was immobilized on a CM5 sensor chip (GE Healthcare) by the amine coupling method. To immobilize the antibody on CM5 chip, the chip was first activated by injecting 100 µl mixture of 0.2 M EDC (N-ethyl-N-(dimethylaminopropyl) carbodiimide hydrochloride) and 0.05 M NHS (N-hydroxysuccinimide) at 10 µl/min flow rate. Furthermore, 100 µg/ml anti-GST antibody in 10 mM sodium acetate, pH 5.0 was injected at 5 µl/min for 900 s and immobilized until 20,000 ~ 25,000 RU. After immobilization the chip was immediately inactivated by injecting 1 M ethanolamine, pH 8.5 at 10 µl/min for 600 s. The chip was kept running in the HBS buffer (GE Healthcare) comprising 10 mM HEPES, pH 8.0, 150 mM NaCl. Of all, 5 µg/ml recombinant GST, GST-HRAS^G12V-GTPγS or GST-HRAS^G12V-GDP proteins were injected into flow cell Fc4, Fc2 and Fc3, respectively for trapping through the immobilized anti-GST antibody. The GST-HRAS^G12V-GTPγS, GST-KRAS^G12V-GppNHpp, or GST-HRAS^G12V-GDP proteins were injected at 5 µl/min for 900 s and usually reached approximately 2000–2500 RU. The GST was injected at same flow rate until about 1200–1350 RU which is 0.54 times less than the GST-HRAS^G12V-GTPγS or GST-HRAS-GDP capture amounts, taking into consideration relative molecular weights (GST, 26KDa, GST-RAS, 48KDa, respectively). Before fragment library screening, the running buffer was replaced by 20 mM Tris, pH 8, 150 mM NaCl, 5 mM MgCl2, 5% DMSO. DMSO solvent correction curves were generated by injecting the running buffers with serial concentrations of DMSO ranging from 4.5 to 6%. […] The individual compounds were injected at 30 µl for 60 s at 30 µl/min flow rate over flow cells Fc1, Fc2, Fc3 and Fc4. The captured GST and GST-RAS were removed from the chip by rinsing with 40 µl 10 mM glycine-HCl, pH 2.1 at 20 µl/min flow rate after every 48 compounds sequential injection. The chip was regenerated by injecting new GST and GST-RAS proteins as described above.

T1 sequence (P01116 1-188 isoform P01116-2 G12V): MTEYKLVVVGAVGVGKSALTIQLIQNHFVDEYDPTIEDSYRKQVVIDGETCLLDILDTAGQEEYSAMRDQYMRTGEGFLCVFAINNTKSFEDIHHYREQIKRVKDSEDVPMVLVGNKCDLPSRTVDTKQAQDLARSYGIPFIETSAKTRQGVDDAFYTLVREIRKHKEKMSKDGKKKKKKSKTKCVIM

binding to KRAS^G12V-GppNHp (SPR): binds
Compound: O=C(NCC1COc2ccccc2O1)c1ccco1 (stereo not shown) [Abd-2]

From publication PMC6085350, “Small molecule inhibitors of RAS-effector protein interactions derived using an intracellular antibody fragment” (Nature Communications, 2018)
